Experimental data: patent US20240051952A1, “HMOX1 INDUCERS” (Mitobridge Inc., priority 2019, published 2024)

Each compound was assayed on Human Heme Oxygenase-1 (HMOX-1) (assay: ELISA assay to measure human heme oxygenase-1 (HMOX-1) in HepG2 lysate). Details: fold change of human HMOX1 protein levels relative to DMSO control, HepG2.
Type: cell-based
Procedure, shortened: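 HepG2 cells lysed in PBS/0.5% Triton X-100/1 mM EDTA with protease inhibitors; lysate diluted 1:20. Sandwich ELISA: anti-HO-1 capture (8 μg/ml), biotinylated detection antibody (200 ng/ml), streptavidin-HRP, chemiluminescent read. Quantified against 12-point HO-1 standard curve from 20 ng/ml; incubations at 20 °C.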

| SMILES | Maximum Fold induction |
| --- | --- |
| Cn1c(Nc2nc3cc(Cl)ccc3[nH]2)nc2cc(C(=O)O)ccc21 [Example 82, 2-((5-chloro-1H-benzo[d]imidazol-2-yl)amino)-1-methyl-1H-benzo[d]imidazole-5-carboxylic acid] | 29-33 |
| COCCNC(=O)c1ccc2c(c1)nc(Nc1nc3cc(Cl)ccc3[nH]1)n2C [Example 83, 2-((5-chloro-1H-benzo[d]imidazol-2-yl)amino)-N-(2-methoxyethyl)-1-methyl-1H-benzo[d]imidazole-5-carboxamide] | 16-21 |
| CCn1c(Nc2nc3ccc(OC(F)(F)F)cc3o2)nc2cc(C(=O)O)ccc21 [Example 84, 1-ethyl-2-((6-(trifluoromethoxy)benzo[d]oxazol-2-yl)amino)-1H-benzo[d]imidazole-5-carboxylic acid] | 17 |
| CCn1c(Nc2nc3ccc(OC(F)(F)F)cc3o2)nc2cc(C(=O)NCCO)ccc21 [Example 86, 1-ethyl-N-(2-hydroxyethyl)-2-((6-(trifluoromethoxy)benzo[d]oxazol-2-yl)amino)-1H-benzo[d]imidazole-5-carboxamide] | 15-32 |
| O=C(O)c1ccc2c(c1)nc(Nc1nc3ccc(OC(F)(F)F)cc3o1)n2CC1CCOC1 (stereo not drawn) [Example 87, 1-((tetrahydrofuran-3-yl)methyl)-2-((6-(trifluoromethoxy)-benzo[d]oxazol-2-yl)amino)-1H-benzo[d]imidazole-5-carboxylic acid] | 21 |
| CS(=O)(=O)CCn1c(Nc2nc3ccc(OC(F)(F)F)cc3o2)nc2cc(C(=O)O)ccc21 [Example 89, 1-(2-(methylsulfonyl)ethyl)-2-((6-(trifluoromethoxy)benzo[d]oxazol-2-yl)amino)-1H-benzo[d]imidazole-5-carboxylic acid] | 10 |
| COCCNC(=O)c1ccc2c(c1)nc(Nc1nc3ccc(OC(F)(F)F)cc3o1)n2CCS(C)(=O)=O [Example 90, N-(2-methoxyethyl)-1-(2-(methylsulfonyl)ethyl)-2-((6-(trifluoromethoxy)benzo[d]oxazol-2-yl)amino)-1H-benzo[d]imidazole-5-carboxamide] | 22 |
| Cn1c(Nc2nc3ccc(Br)cc3o2)nc2cc(C(=O)O)ccc21 [Example 91, 2-((6-bromobenzo[d]oxazol-2-yl)amino)-1-methyl-1H-benzo[d]imidazole-5-carboxylic acid] | 17-26 |
| COc1ccc2nc(Nc3nc4cc(C(=O)NCCO)ccc4n3C)oc2c1 [Example 92, N-(2-hydroxyethyl)-2-((6-methoxybenzo[d]oxazol-2-yl)amino)-1-methyl-1H-benzo[d]imidazole-5-carboxamide] | 12-20 |
| O=C(O)c1ccc2c(c1)nc(Nc1nc3ccc(OC(F)(F)F)cc3o1)n2CC1(O)COC1 [Example 93, 1-((3-hydroxyoxetan-3-yl)methyl)-2-((6-(trifluoromethoxy)benzo[d]oxazol-2-yl)amino)-1H-benzo[d]imidazole-5-carboxylic acid] | 22 |
| COCCNC(=O)c1ccc2c(c1)nc(Nc1nc3ccc(OC(F)(F)F)cc3o1)n2CC1(O)COC1 [Example 94, 1-((3-hydroxyoxetan-3-yl)methyl)-N-(2-methoxyethyl)-2-((6-(trifluoromethoxy)benzo[d]oxazol-2-yl)amino)-1H-benzo[d]imidazole-5-carboxamide] | 28 |
| O=C(NCCO)c1ccc2c(c1)nc(Nc1nc3ccc(OC(F)(F)F)cc3o1)n2CC1(O)COC1 [Example 95, N-(2-hydroxyethyl)-1-((3-hydroxyoxetan-3-yl)methyl)-2-((6-(trifluoromethoxy)benzo[d]oxazol-2-yl)amino)-1H-benzo[d]imidazole-5-carboxamide] | 21 |
| Cn1c(Nc2nc3ccc(Cl)cc3o2)nc2cc(C(=O)O)ccc21 [Example 96, 2-((6-chlorobenzo[d]oxazol-2-yl)amino)-1-methyl-1H-benzo[d]imidazole-5-carboxylic acid] | 39-56 |
| Cn1c(Nc2nc3ccc(Cl)cc3o2)nc2cc(C(=O)NCCO)ccc21 [Example 97, 2-((6-chlorobenzo[d]oxazol-2-yl)amino)-N-(2-hydroxyethyl)-1-methyl-1H-benzo[d]imidazole-5-carboxamide] | 33-51 |
| Cn1c(Nc2nc3ccc(OCC(F)(F)F)cc3o2)nc2cc(C(=O)O)ccc21 [Example 98, 1-methyl-2-((6-(2,2,2-trifluoroethoxy)benzo[d]oxazol-2-yl)amino)-1H-benzo[d]imidazole-5-carboxylic acid] | 36-56 |
| COCCNC(=O)c1ccc2c(c1)nc(Nc1nc3ccc(OCC(F)(F)F)cc3o1)n2C [Example 99, N-(2-methoxyethyl)-1-methyl-2-((6-(2,2,2-trifluoroethoxy)benzo[d]oxazol-2-yl)amino)-1H-benzo[d]imidazole-5-carboxamide] | 25-31 |

| SMILES | Maximum Fold induction |
| --- | --- |
| Cn1c(Nc2nc3ccc(OCC(F)(F)F)cc3o2)nc2cc(C(=O)NCCO)ccc21 [Example 100, N-(2-hydroxyethyl)-1-methyl-2-((6-(2,2,2-trifluoroethoxy)benzo[d]oxazol-2-yl)amino)-1H-benzo[d]imidazole-5-carboxamide] | 24-35 |
| Cn1c(Nc2nc3ccc(OCCO)cc3o2)nc2cc(C(=O)O)ccc21 [Example 101, 2-((6-(2-hydroxyethoxy)benzo[d]oxazol-2-yl)amino)-1-methyl-1H-benzo[d]imidazole-5-carboxylic acid] | 21 |
| COCCNC(=O)c1ccc2c(c1)nc(Nc1nc3ccc(OCCO)cc3o1)n2C [Example 102, 2-((6-(2-hydroxyethoxy)benzo[d]oxazol-2-yl)amino)-N-(2-methoxyethyl)-1-methyl-1H-benzo[d]imidazole-5-carboxamide] | 26-40 |
| Cn1c(Nc2nc3ccc(OCCO)cc3o2)nc2cc(C(=O)NCCO)ccc21 [Example 103, 2-((6-(2-hydroxyethoxy)benzo[d]oxazol-2-yl)amino)-N-(2-hydroxyethyl)-1-methyl-1H-benzo[d]imidazole-5-carboxamide] | 37-39 |
| Cn1c(Nc2nc3ccc(OCCO)cc3o2)nc2cc(C(=O)NCCOCCO)ccc21 [Example 104, 2-((6-(2-hydroxyethoxy)benzo[d]oxazol-2-yl)amino)-N-(2-(2-hydroxyethoxy)ethyl)-1-methyl-1H-benzo[d]imidazole-5-carboxamide] | 23 |
| Cl.Cn1c(Nc2nc3ccc(OCCO)cc3o2)nc2cc(C(=O)NCCN)ccc21 [Example 105, N-(2-aminoethyl)-2-((6-(2-hydroxyethoxy)benzo[d]oxazol-2-yl)amino)-1-methyl-1H-benzo[d]imidazole-5-carboxamide hydrochloride] | 36 |
| Cn1c(Nc2nc3ccc(OCCO)cc3o2)nc2cc(C(=O)NCCNC3=NCCN3)ccc21 [Example 106, N-(2-((4,5-dihydro-1H-imidazol-2-yl)amino)ethyl)-2-((6-(2-hydroxyethoxy)benzo[d]oxazol-2-yl)amino)-1-methyl-1H-benzo[d]imidazole-5-carboxamide] | 6 |
| Cn1c(Nc2nc3cc(F)c(C(F)(F)F)cc3o2)nc2cc(C(=O)O)ccc21 [Example 107, 2-((5-fluoro-6-(trifluoromethyl)benzo[d]oxazol-2-yl)amino)-1-methyl-1H-benzo[d]imidazole-5-carboxylic acid] | 45 |
| Cn1c(Nc2nc3cc(F)c(C(F)(F)F)cc3o2)nc2cc(C(=O)NCCO)ccc21 [Example 108, 2-((5-fluoro-6-(trifluoromethyl)benzo[d]oxazol-2-yl)amino)-N-(2-hydroxyethyl)-1-methyl-1H-benzo[d]imidazole-5-carboxamide] | 29 |
| COCCNC(=O)c1ccc2c(c1)nc(Nc1nc3cccnc3o1)n2C [Example 109, N-(2-methoxyethyl)-1-methyl-2-(oxazolo[5,4-b]pyridin-2-ylamino)-1H-benzo[d]imidazole-5-carboxamide] | 26 |
| Cn1c(Nc2nc3cccnc3o2)nc2cc(C(=O)NCCO)ccc21 [Example 110, N-(2-hydroxyethyl)-1-methyl-2-(oxazolo[5,4-b]pyridin-2-ylamino)-1H-benzo[d]imidazole-5-carboxamide] | 60 |
| Cn1c(Nc2nc3ncccc3o2)nc2cc(C(=O)O)ccc21 [Example 111, 1-methyl-2-(oxazolo[4,5-b]pyridin-2-ylamino)-1H-benzo[d]imidazole-5-carboxylic acid] | 3 |
| COCCNC(=O)c1ccc2c(c1)nc(Nc1nc3ncccc3o1)n2C [Example 112, N-(2-methoxyethyl)-1-methyl-2-(oxazolo[4,5-b]pyridin-2-ylamino)-1H-benzo[d]imidazole-5-carboxamide] | 15 |
| Cn1c(Nc2nc3ccc(C(F)(F)F)nc3o2)nc2cc(C(=O)NCCO)ccc21 [Example 113, N-(2-hydroxyethyl)-1-methyl-2-((5-(trifluoromethyl)oxazolo[5,4-b]pyridin-2-yl)amino)-1H-benzo[d]imidazole-5-carboxamide] | 20 |
| Cn1c(Nc2nc3nccnc3s2)nc2cc(C(=O)NCCOCCO)ccc21 [Example 114, N-(2-(2-hydroxyethoxy)ethyl)-1-methyl-2-(thiazolo[4,5-b]pyrazin-2-ylamino)-1H-benzo[d]imidazole-5-carboxamide] | 33 |

Same assay, conditions: human HMOX1 protein in HepG2 lysate, ELISA; * = average of 2 or more EC50 determinations; NA = Not Active

| SMILES | EC50 |
| --- | --- |
| CCn1c(Nc2nc3ccc(OC(F)(F)F)cc3o2)nc2cc(C(=O)NCCOC)ccc21 [Example 85, 1-ethyl-N-(2-methoxyethyl)-2-((6-(trifluoromethoxy)benzo[d]oxazol-2-yl)amino)-1H-benzo[d]imidazole-5-carboxamide] | 1300 nM |
| COCCNC(=O)c1ccc2c(c1)nc(Nc1nc3ccc(OC(F)(F)F)cc3o1)n2CC1CCOC1 (stereo not drawn) [Example 88, N-(2-methoxyethyl)-1-((tetrahydrofuran-3-yl)methyl)-2-((6-(trifluoromethoxy)benzo[d]oxazol-2-yl)amino)-1H-benzo[d]imidazole-5-carboxamide] | 1500 nM |
